Laboratory results taken from US9283235B2, “Intermittent lowering of cortisol as treatment of clinical conditions associated with abnormal concentrations of cortisol in animals” (Stegram Pharmaceuticals Limited, priority 2001, dated 2016).
Where “and” joins values, the source holds several entries; their conditions need not be identical. Identical values can stand only once. Entries after “also recorded” stand apart in the source; their conditions may differ.

Legend:
[1] = test system: serum cortisol; assay: Canine serum cortisol over 24 hours pre and post trilostane; format: in vivo, dog; conditions: for Canine serum cortisol, post: individual dogs; for Canine serum cortisol, post, Mean: mean of dogs
Source text: With this level of lowering there was relief of the symptoms of the Cushing's disease.

[2] = test system: horses with equine Cushing's disease; assay: Clinical signs in horses with equine Cushing's disease, trilostane once daily in feed for 30 days; format: in vivo, horse
Protocol: (§1) The ability of intermittent administration of Trilostane to block adrenal steroidogenesis was assessed in twenty horses (mean age 21, SD 5.7 years) with equine Cushing's disease. The combined dexamethasone suppression thyrotropin releasing hormone (TRH) stimulation test (17 horses) or TRH stimulation test (3 horses) was used as a standard test of function of the hypothalamic-pituitary-adrenal axis. Serum samples for cortisol analysis were collected via indwelling catheter at 4-hourly intervals over 24 hours on each of the test periods. These were before treatment then at 210 minutes (30 min after I mg i.v. TRH) and 22 hours after […] dexamethasone i.m. Affected horses were treated with 0.4 to 1 mg/kg, (mean 0.5 mg/kg) trilostane administered once daily in feed for a period of 30 days. After 30 days endocrine testing was repeated. Serum cortisol before and after treatment was compared by paired t-test.

[3] = test system: dogs with Alopecia X; assay: Treatment of Alopecia X in dogs, hair re-growth; format: in vivo, dog; conditions: once-daily dose
Source text: To study the effect of trilostane in the treatment of Alopecia X a total of 11 dogs with the condition were examined along with 10 unaffected dogs. The hormonal abnormalities were identified, with increases in cortisol and 17 OHP concentrations. Trilostane in a once-daily dose was given to the affected animals. Five of the six Pomeranians (83%) and all four of the Miniature poodles have responded to trilostane, showing hair re-growth in the affected areas.

[4] = test system: hypothalamic-pituitary-adrenal axis; assay: Combined dexamethasone suppression / TRH stimulation test, serum cortisol in horses; format: in vivo, horse
Protocol: as §1
This is similar to the post ACTH stimulation in the dogs. The adrenal gland is not responding to stimulation by pituitary hormone in the same way as before trilostane treatment.

[5] = test system: ACTH stimulation of the adrenal gland; assay: ACTH stimulation test, serum cortisol in dogs; format: in vivo, dog
Protocol: Dogs were entered into the study sequentially over a period of 2-3.5 years Owners were informed about the experimental nature of the treatment and signed a consent form. The ACTH stimulation test was performed by collection of serum samples before and one hour after intravenous injection of ACTH (Synacthen, Alliance) at a dose of 0.125 mg for dogs weighing less than 15 kg, and 0.25 mg for dogs weighing greater than 15 kg. Cortisol concentration was measured by radioimmunoassay previously validated for dogs Blood for endogenous ACTH was collected into a cooled EDTA tube in ice, centrifuged immediately and the frozen at −20° C. Abdominal ultrasound was performed by an experienced board-certified radiologist and adrenal thickness was assessed as a single measurement made perpendicular to the long axis and was defined as the greatest dorso-ventral dimension.
Dogs with Cushing's disease were given an ACTH stimulation test at 12, 35 and 81 days (average) during a course of treatment with a single daily dose of trilostane of 5-20 mg/kg. […] Thus, trilostane has blunted ACTH stimulation of the adrenal gland.

[6] = test system: advanced breast cancer; conditions: published studies (Williams et al 1993; Ingle et al 1990); cited from earlier work
[7] = Trilostane and ketotrilostane concentrations in dogs after a single daily dose; format: in vivo, dog
Protocol: Trilostane concentrations in the plasma of 6 dogs: day 0, phase 1 (one 60 mg capsule per day), study no. GB009/01-001.
Ketotrilostane concentrations in the plasma of 6 dogs: day 0, phase 1 (one 60 mg capsule per day), study no. GB009/01-001.
The significance of this is that the metabolite, ketotrilostane, is not retained in the body for an extended period of time.

[8] = test system: dogs with hyperadrenocorticism (HAC); assay: Tolerability and adverse events of trilostane in dogs with HAC; format: in vivo, dog
Protocol: Follow-up re-examinations took place after 10 days, 4 weeks, 3 mouths, 6 months and then every 6 months or within 4 weeks of adjusting the dosage. At these points, owners were carefully questioned about their perception of the dogs general well being, dissolution of clinical signs and potential side effects and a physical examination was performed. A full biochemical profile and an ACTH stimulation test were carried out. Further tests such as urinanalysis, urine culture, thoracic radiographs, etc. were done if deemed necessary. If the clinical sips of hyperadrenocorticism (polyuria/polydipsia, polyphagia, exercise intolerance, etc.) were still present and if the post-ACTH cortisol concentration remained above 220 nmol/l, trilostane was given twice daily at the same dosage.
Starting dose was between 1.8 and 20 mg/kg (mean: 6.0; SD 3.4 mg/kg). […] Two cross bred dogs with classical clinical signs and endocrine testing results of HAC were started on 6.5 and 7.5 mg/kg trilostane. […] One of the dogs also was hyperkalaernic and hyponatraemic (ratio:22.3). In both dogs no more trilostane was given thereafter and the dogs are free of clinical signs after 2.7 and 1.4 years. In the 9 dogs with adrenal tumours, which started on the same dosing protocol as the dogs with PDH, two had the dose halved, three stayed on the original dose while in 4 dogs the dose was increased up to 300% of the original dose.

[9] = Table 2, individual horses, after trilostane
[10] = Table 5, individual horses, after 30 days 0.4–1.0 mg/k
[11] = mean of horses, after 30 days trilostane

## CC12CCC3C(CC[C@@]45O[C@@H]4C(=O)C(C#N)CC35C)C1CC[C@@H]2O (stereo partly drawn) [Trilostane, 2α-cyano-4α,5α-epoxyandrostan-17β-ol-3-one]
[1]; dogs with Cushing's disease
  Serum cortisol lowering after daily dose, in words: reduced significantly at 4 hrs
[1]; 4 hrs after dose, Trilostane 5–10 mg/k over 4–21 days
  Canine serum cortisol, post: 5 nmol/l (4×) and 62 nmol/l (2×) and 10 nmol/l and 60 nmol/l and 57 nmol/l and 63 nmol/l
[1]; 8 hrs after dose
  Canine serum cortisol, post: 5 nmol/l (4×) and 48 nmol/l and 171 nmol/l and 51 nmol/l and 262 nmol/l and 183 nmol/l and 315 nmol/l
[1]; 12 hrs after dose
  Canine serum cortisol, post: 5 nmol/l and 75 nmol/l and 83 nmol/l and 66 nmol/l (2×) and 158 nmol/l and 197 nmol/l and 143 nmol/l and 164 nmol/l and 318 nmol/l
[1]; 19 hrs after dose
  Canine serum cortisol, post: 52 nmol/l and 101 nmol/l and 92 nmol/l and 63 nmol/l and 85 nmol/l and 183 nmol/l (3×) and 139 nmol/l and 230 nmol/l
[1]; 20 hrs after dose
  Canine serum cortisol, post: 166 nmol/l and 105 nmol/l and 86 nmol/l and 97 nmol/l and 61 nmol/l and 154 nmol/l and 144 nmol/l (2×) and 108 nmol/l and 199 nmol/l
[1]; 24 hrs after dose
  Canine serum cortisol, post: 117 nmol/L and 109 nmol/L and 51 nmol/L and 74 nmol/L and 66 nmol/L and 171 nmol/L and 144 nmol/L and 131 nmol/L and 154 nmol/L and 246 nmol/L
[1]; 28 hrs after dose
  Canine serum cortisol, post: 147 nmol/L and 112 nmol/L and 75 nmol/L and 86 nmol/L and 53 nmol/L and 124 nmol/L and 190 nmol/L and 174 nmol/L and 246 nmol/L and 313 nmol/L
[1]; 4 hrs
  Canine serum cortisol, post, Mean: 33 nmol/L
[1]; 8 hrs
  Canine serum cortisol, post, Mean: 105 nmol/L
[1]; 12 hrs
  Canine serum cortisol, post, Mean: 130 nmol/L
[1]; 19 hrs
  Canine serum cortisol, post, Mean: 131 nmol/L
[1]; 20 hrs
  Canine serum cortisol, post, Mean: 126 nmol/L
[1]; 24 hrs
  Canine serum cortisol, post, Mean: 126 nmol/L
[1]; 28 hrs
  Canine serum cortisol, post, Mean: 152 nmol/L
[2]; lethargy present in 19 horses
  Lethargy / demeanour after therapy: improvement in demeanour was evident in all horses
[2]; present in 11 horses
  Polyuria and/or polydipsia after treatment: reduced ill all
[2]; present in 17 horses
  Recurrent, chronic or persistent laminitis improved or showed no recurrence: 14 cases
[2]; three horses, rotation and sinking on radiographs
  Severe, acute laminitis on presentation, response: did not respond to trilostane
[2]; trilostane once-per-day
  Overall clinical response: a clinical response was observed; also recorded: improvement in most of the clinical signs in all horses
[3]
  Miniature poodles responding, hair re-growth in the affected areas: all four
[3]; five of six
  Pomeranians responding, hair re-growth in the affected areas: 83%
[4]; [9]
  Serum cortisol Post-Treatment Base: 160 and 236 and 116 and 254 and 149 and 127 and 112 and 136 and 65 and 202 and 81 and 100 and 209 and 189 and 121 and 288
  Serum cortisol Post-Treatment Post Dex: 170 and 149 and 118 and 113 (2×) and 82 and 81 (2×) and 163 and 50 and 101 and 138 and 47 and 1 and 153
  Serum cortisol Post-Treatment Post TRH: 114 and 316 and 167 and 193 and 93 and 79 and 139 and 158 and 170 and 88 and 150 and 117 and 100 (2×) and 138 and 224
[4]; Table 2, individual horses, pre vs post treatment
  % change: −60.5% and −69% and −8% and −84% and −82% and −16% and −5% and −27% and −233% and −50% and −1% and −10% and 18% and −57% and 1% and −15.8%
[4]; Table 5, individual horses
  Different, pre-post: % TRH resp: 60% and 69% and 8% and 84% and 52% and 16% (2×) and 5% and 27% and 152% and 50% and 1% and 11% and −18% and 57% and 37%
  Different, pre-post: Base: -33 nmol/L and -105 nmol/L and 15 nmol/L and -118 nmol/L and -124 nmol/L and -23 nmol/L and 20 nmol/L and -8 nmol/L and 8 nmol/L and 29 nmol/L and 5 nmol/L and 2 nmol/L and 65 nmol/L and -18 nmol/L and 22 nmol/L and -95 nmol/L
  Different, pre-post: post Dex: −20 nmol/l and 12 nmol/l and 4 nmol/l and −10 nmol/l and 7 nmol/l (2×) and −16 nmol/l and −17 nmol/l and 107 nmol/l and 5 nmol/l and 15 nmol/l and −40 nmol/l and 23 nmol/l and 60 nmol/l and −67 nmol/l
  Different, pre-post: post TRH: 53 nmol/L and -50 nmol/L and 32 nmol/L and 27 nmol/L and 49 nmol/L and 2 nmol/L and 31 nmol/L and 25 nmol/L and 66 nmol/L and 130 nmol/L and 10 nmol/L and 8 nmol/L and -19 nmol/L and 84 nmol/L and 71 nmol/L and -43 nmol/L
[4]; [10]
  Cortisol post Trilostane Base: 160 nmol/L and 236 nmol/L and 116 nmol/L and 254 nmol/L and 149 nmol/L and 127 nmol/L and 112 nmol/L and 136 nmol/L and 65 nmol/L and 202 nmol/L and 81 nmol/L and 100 nmol/L and 209 nmol/L and 189 nmol/L and 121 nmol/L and 288 nmol/L
  Cortisol post Trilostane post Dex: 170 nmol/l and 149 nmol/l and 118 nmol/l and 113 nmol/l (2×) and 82 nmol/l and 81 nmol/l (2×) and 163 nmol/l and 50 nmol/l and 101 nmol/l and 138 nmol/l and 47 nmol/l and 1 nmol/l and 153 nmol/l
  Cortisol post Trilostane post TRH: 114 nmol/l and 316 nmol/l and 167 nmol/l and 193 nmol/l and 93 nmol/l and 79 nmol/l and 139 nmol/l and 158 nmol/l and 170 nmol/l and 88 nmol/l and 150 nmol/l and 117 nmol/l and 100 nmol/l (2×) and 138 nmol/l and 224 nmol/l
  post Trilostane % TRH resp: −29% and 34% and 44% and −24% and −38% (2×) and 24% and 16% and 162% and −56% and 85% and 17% and −52% and −27% and −17% and −22%
[4]; horses, single daily dose
  Cortisol response to TRH / Dex pre vs post trilostane, in words: lowering of the response to TRH; also recorded: decrease in cortisol response to TRH administration
[4]; mean of horses
  Different, pre-post: % TRH resp, group mean: 39.2%
  Different, pre-post: Base, group mean: -22 nmol/L
  Different, pre-post: post Dex, group mean: 5 nmol/L
  Different, pre-post: post TRH, group mean: 30 nmol/L
[4]; mean of horses, 22 hours post dexamethasone, after 30 days trilostane
  Cortisol post Trilostane post Dex, group mean: 104 nmol/L
[4]; [11]
  Cortisol post Trilostane Base, group mean: 159 nmol/L
  Cortisol post Trilostane post TRH, group mean: 147 nmol/L
[5]; 12 days of Trilostane treatment
  % pre Trilostane Cortisol: −29.7%
[5]; 12 days of Trilostane treatment (5-10 mg/k), 53 dogs
  Post ACTH stimulation test serum Cortisol: 249 nmol/L
[5]; 35 days of Trilostane treatment
  % pre Trilostane Cortisol: −30.0%
[5]; 35 days of Trilostane treatment (5-10 mg/k), 59 dogs
  Post ACTH stimulation test serum Cortisol: 231 nmol/L
[5]; 81 days of Trilostane treatment
  % pre Trilostane Cortisol: −27.3%
[5]; 81 days of Trilostane treatment (5-10 mg/k), 48 dogs
  Post ACTH stimulation test serum Cortisol: 214 nmol/L
[5]; first re-examination, all dogs
  Serum cortisol post ACTH as % of the original value: less than 61%
[5]; single daily dose 5-20 mg/kg, vs non-treatment controls
  Cortisol response to ACTH, in words: markedly reduced
[6]
  Response rate: 29% and 38%
[7]; after single daily dose
  Elimination of trilostane: rapid elimination
[7]; after single daily dose (FIG. 1, one 60 mg capsule per day, 6 dogs)
  Time of peak serum concentration of trilostane: 1 to 3 h
[8]; all without clinical consequence
  Biochemistry abnormalities during the course of therapy: one episode of hyperkalaemia, two episodes of azotaemia, three episodes of hyperbilirubinaemia and two episodes of hypercalcaemia
[8]; dog, in vivo
  Acute deaths: Three dogs died acutely at home
[8]; starting dose 1.8 to 20 mg/kg
  Tolerability: generally well tolerated
[8]; trilostane stopped, both dogs euthanised
  Hyperkalaemia and hyponatraemia: two dogs showed hyperkalaemia and hyponatraemia prior to clinical deterioration
[8]; two cross bred dogs started on 6.5 and 7.5 mg/kg, after two and three months
  ACTH stimulation test leading to stop of the drug: both showed a flat-lined ACTH stimulation test
